Test results as given in ChEMBL document CHEMBL1201862, “PubChem BioAssay data set” (2004).
Calls of active or inactive are those of the source.

Columns and labels:
[1] = A cytotoxicity screen of small molecule inhibitors of the PhoP region in Salmonella typhi identified in the primary screen. [Related pubchem assays: 1850, 1864, 1985 ]; assay type: functional
cells = assay type: functional
[2] = molecular target: Peroxisome proliferator-activated receptor gamma/Nuclear receptor coactivator 2 (Homo sapiens, UniProt P37231); assay type: functional;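 also: agonist potency for raising coactivator recruitment to the receptor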
Sequence of Peroxisome proliferator-activated receptor gamma/Nuclear receptor coactivator 2 (P37231 whole entry): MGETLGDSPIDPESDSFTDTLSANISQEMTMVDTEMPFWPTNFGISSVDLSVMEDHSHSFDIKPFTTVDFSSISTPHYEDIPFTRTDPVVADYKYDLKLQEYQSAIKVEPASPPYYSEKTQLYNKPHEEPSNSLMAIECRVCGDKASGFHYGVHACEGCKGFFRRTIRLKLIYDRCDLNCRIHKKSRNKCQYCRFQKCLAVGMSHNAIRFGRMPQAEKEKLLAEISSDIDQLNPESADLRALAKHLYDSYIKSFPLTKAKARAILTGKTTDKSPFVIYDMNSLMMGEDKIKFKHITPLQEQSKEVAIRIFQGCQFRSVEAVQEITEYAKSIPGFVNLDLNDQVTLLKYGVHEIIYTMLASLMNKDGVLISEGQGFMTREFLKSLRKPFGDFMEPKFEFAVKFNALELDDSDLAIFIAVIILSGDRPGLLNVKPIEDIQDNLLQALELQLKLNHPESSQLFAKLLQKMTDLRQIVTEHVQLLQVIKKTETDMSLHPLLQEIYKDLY
Sequence of Peroxisome proliferator-activated receptor gamma/Nuclear receptor coactivator 2 (Q15596 whole entry, further chain): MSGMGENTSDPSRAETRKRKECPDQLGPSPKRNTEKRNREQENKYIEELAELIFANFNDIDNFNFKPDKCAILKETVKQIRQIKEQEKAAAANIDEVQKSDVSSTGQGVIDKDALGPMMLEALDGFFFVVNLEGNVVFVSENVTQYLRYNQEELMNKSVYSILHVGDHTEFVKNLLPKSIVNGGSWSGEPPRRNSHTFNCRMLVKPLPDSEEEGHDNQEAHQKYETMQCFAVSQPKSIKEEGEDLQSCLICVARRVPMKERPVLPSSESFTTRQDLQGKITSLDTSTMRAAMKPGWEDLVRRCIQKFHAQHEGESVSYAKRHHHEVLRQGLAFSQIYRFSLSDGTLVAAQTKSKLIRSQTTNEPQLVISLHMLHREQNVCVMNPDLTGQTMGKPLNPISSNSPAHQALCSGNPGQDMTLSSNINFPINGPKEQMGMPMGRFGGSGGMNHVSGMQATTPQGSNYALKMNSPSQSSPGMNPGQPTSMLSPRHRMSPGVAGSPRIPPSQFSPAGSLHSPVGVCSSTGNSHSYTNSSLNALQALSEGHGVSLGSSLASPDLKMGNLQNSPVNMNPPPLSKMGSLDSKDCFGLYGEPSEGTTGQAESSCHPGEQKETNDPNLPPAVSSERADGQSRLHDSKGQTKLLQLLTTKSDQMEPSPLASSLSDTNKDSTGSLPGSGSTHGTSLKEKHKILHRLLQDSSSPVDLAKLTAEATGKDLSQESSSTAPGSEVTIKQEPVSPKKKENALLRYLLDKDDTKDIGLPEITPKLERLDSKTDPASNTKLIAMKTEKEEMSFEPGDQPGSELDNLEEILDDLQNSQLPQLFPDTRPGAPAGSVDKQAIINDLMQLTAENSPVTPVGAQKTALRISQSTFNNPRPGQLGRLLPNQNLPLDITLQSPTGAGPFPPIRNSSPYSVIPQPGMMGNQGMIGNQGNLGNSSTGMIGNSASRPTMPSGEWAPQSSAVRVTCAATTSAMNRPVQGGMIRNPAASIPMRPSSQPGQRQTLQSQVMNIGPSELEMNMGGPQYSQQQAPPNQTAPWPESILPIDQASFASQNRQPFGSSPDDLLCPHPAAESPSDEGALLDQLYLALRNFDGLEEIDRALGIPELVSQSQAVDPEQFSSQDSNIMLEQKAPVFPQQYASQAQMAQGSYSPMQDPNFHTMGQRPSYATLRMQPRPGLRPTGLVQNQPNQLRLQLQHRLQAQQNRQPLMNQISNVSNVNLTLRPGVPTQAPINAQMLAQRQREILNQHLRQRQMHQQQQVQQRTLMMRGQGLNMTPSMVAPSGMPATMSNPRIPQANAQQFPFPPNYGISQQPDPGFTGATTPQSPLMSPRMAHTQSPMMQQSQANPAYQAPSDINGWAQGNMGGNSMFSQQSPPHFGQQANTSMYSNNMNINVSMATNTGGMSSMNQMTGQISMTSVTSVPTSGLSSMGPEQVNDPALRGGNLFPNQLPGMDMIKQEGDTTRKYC

[3] = molecular target: Peroxisome proliferator-activated receptor gamma/Nuclear receptor coactivator 3 (Homo sapiens, UniProt P37231); assay type: functional;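 also: agonist potency for raising coactivator recruitment to the receptor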
Sequence of Peroxisome proliferator-activated receptor gamma/Nuclear receptor coactivator 3 (P37231 whole entry): as the sequence (P37231 whole entry) above
Sequence of Peroxisome proliferator-activated receptor gamma/Nuclear receptor coactivator 3 (Q9Y6Q9 whole entry, further chain): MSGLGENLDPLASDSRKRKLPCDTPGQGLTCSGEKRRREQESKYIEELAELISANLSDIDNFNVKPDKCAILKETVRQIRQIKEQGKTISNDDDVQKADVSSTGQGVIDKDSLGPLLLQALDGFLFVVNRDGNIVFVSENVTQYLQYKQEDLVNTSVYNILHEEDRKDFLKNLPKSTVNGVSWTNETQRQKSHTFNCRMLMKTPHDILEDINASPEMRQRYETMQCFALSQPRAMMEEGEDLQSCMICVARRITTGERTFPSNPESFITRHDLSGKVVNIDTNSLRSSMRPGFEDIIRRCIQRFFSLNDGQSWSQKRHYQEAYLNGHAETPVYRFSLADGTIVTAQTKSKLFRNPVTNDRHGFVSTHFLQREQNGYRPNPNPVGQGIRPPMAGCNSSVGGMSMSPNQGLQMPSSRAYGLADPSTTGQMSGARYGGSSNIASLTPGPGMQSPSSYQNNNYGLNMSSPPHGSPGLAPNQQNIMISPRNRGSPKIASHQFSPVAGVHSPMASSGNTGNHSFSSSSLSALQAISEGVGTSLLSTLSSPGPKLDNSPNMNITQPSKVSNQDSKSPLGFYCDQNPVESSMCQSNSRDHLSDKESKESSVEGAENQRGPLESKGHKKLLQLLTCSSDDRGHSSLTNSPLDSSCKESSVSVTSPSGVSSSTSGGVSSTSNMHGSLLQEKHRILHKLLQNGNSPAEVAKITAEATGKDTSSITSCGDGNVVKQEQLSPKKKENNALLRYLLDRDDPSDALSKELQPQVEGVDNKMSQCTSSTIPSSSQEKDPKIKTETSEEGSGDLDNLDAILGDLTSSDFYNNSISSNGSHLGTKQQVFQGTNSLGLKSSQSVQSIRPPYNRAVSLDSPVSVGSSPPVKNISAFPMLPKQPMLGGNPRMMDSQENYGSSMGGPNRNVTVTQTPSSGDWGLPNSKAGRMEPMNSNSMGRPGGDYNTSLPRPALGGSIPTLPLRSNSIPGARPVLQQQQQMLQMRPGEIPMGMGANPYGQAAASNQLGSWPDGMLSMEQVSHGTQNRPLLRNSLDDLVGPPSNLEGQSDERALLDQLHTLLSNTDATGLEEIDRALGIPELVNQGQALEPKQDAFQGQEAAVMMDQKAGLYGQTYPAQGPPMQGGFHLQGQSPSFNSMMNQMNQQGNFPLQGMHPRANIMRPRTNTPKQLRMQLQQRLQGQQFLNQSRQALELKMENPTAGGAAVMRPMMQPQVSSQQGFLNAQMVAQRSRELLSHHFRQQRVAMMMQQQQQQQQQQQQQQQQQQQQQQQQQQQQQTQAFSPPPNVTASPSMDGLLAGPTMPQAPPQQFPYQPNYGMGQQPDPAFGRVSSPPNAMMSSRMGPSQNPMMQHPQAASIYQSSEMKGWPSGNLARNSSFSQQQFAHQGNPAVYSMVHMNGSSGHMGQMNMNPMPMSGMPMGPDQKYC

[4] = molecular target: Peroxisome proliferator-activated receptor gamma/Nuclear receptor coactivator 1 (Homo sapiens, UniProt P37231); assay type: functional;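 also: agonist potency as compounds enhance coactivator SRC-1 recruitment to PPARgamma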
[5] = molecular target: DNA dC->dU-editing enzyme APOBEC-3G (Homo sapiens, UniProt Q9HC16); assay type: functional;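 also: Dose-response counterscreen measuring inhibition of APOBEC3G DNA deaminase activity, run while confirming APOBEC3A inhibitors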
[6] = molecular target: DNA dC->dU-editing enzyme APOBEC-3A (Homo sapiens, UniProt P31941); assay: Dose Response confirmation of small molecule APOBEC3A DNA Deaminase Inhibitors via a fluorescence-based single-stranded DNA deaminase assay. [Related pubchem assays (depositor defined):AID493011, AID493024]; assay type: functional
Sequence of DNA dC->dU-editing enzyme APOBEC-3A (P31941 whole entry): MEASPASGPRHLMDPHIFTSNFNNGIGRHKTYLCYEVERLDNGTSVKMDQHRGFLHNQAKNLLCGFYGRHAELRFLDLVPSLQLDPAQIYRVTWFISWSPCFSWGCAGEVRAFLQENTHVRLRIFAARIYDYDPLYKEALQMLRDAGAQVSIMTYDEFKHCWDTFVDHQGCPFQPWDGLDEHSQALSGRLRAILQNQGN

[7] = molecular target: Induced myeloid leukemia cell differentiation protein Mcl-1 (Homo sapiens, UniProt Q07820); assay type: functional
[8] = molecular target: T1, Polyadenylate-binding protein 1 (Homo sapiens, UniProt P11940); assay: MLLE binding blockers, Cy5 peptide tracer – biochemical, fluorescence polarization, Cy5-PAM2 peptide, secondary, miRNA deadenylation inhibitor project, dose response (AID 602260); assay type: functional; settings: read-out: IC50_Mean
T1 sequence (P11940 whole entry): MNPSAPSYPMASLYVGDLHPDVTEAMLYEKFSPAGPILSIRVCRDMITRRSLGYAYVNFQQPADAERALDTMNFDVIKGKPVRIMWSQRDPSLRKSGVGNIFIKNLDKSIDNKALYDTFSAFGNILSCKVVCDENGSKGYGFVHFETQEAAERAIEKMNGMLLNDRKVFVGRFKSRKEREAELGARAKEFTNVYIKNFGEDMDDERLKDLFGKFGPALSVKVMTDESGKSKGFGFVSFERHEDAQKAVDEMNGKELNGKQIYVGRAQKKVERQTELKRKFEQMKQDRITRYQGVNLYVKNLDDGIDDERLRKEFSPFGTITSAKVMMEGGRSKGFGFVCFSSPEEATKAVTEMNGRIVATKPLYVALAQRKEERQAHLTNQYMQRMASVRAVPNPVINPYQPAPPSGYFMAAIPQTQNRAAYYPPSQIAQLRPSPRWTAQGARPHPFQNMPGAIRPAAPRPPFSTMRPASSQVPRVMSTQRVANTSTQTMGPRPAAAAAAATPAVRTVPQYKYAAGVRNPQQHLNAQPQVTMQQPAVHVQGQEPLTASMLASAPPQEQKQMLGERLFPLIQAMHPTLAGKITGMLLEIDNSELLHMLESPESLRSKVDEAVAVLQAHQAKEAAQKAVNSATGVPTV

Vero = assay: viability of Vero cells under compound – cytotoxicity control for flavivirus capping enzyme inhibitors (AID 588742); assay type: functional; settings: Chlorocebus sabaeus
[9] = viability loss in THP-1 monocytes – THP-1 cells, cytotoxicity control for Vif-APOBEC3G degradation inhibitor project, dose response (AID 1117359); assay type: functional; settings: THP-1
[10] = molecular target: T2, Apoptotic protease-activating factor 1 (Homo sapiens, UniProt O14727); assay type: functional
T2 sequence (O14727 whole entry): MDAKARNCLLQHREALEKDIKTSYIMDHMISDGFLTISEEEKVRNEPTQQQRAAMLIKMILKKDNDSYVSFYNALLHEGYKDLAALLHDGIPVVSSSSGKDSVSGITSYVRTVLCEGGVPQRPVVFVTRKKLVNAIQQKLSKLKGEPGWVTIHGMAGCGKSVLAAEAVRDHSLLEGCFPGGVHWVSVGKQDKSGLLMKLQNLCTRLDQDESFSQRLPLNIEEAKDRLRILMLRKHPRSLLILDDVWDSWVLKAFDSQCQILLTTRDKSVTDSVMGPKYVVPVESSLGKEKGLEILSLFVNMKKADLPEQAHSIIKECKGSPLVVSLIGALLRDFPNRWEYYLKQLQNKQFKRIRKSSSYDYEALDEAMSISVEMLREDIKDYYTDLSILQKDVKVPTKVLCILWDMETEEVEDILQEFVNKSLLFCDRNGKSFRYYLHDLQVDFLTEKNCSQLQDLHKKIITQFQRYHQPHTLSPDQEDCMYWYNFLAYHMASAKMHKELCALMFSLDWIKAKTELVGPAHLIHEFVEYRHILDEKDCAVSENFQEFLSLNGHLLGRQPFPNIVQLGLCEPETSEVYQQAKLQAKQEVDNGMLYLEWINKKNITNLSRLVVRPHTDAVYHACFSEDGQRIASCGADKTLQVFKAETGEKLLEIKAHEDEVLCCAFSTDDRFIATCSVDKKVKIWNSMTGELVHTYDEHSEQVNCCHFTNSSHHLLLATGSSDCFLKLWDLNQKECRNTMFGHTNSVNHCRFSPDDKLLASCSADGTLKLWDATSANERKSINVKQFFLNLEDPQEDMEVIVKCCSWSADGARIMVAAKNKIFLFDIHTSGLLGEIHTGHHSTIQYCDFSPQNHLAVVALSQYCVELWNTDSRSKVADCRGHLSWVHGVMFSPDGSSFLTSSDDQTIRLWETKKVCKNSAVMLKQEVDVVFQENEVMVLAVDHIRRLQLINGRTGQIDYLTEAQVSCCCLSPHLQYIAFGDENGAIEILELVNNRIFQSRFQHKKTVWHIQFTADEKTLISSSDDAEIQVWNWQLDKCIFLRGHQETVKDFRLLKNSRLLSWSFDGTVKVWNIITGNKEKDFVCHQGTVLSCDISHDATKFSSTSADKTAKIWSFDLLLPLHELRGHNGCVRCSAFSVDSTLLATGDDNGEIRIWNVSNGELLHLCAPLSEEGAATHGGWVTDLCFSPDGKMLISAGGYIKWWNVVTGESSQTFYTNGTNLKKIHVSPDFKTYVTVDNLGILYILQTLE

[11] = molecular target: T1, Polyadenylate-binding protein 1; assay: MLLE domain peptide-binding blockers, IC50 – biochemical, fluorescence polarization, FITC-PAM2 peptide, dose response (AID 602259); assay type: functional; settings: read-out: IC50_Mean
[12] = molecular target: E3 ubiquitin-protein ligase Mdm2 (Homo sapiens, UniProt Q00987); assay: MDM2-luc reporter signal enhancers, multi-concentration potency testing, MDM2 ubiquitin-protein ligase inhibitor program, whole-cell format, luminescence detection, 384-well microplate (AID 1394); assay type: functional;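 also: MDM2 E3 inhibitors raise luminescence so EC50 is for signal enhancement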
Estrogen receptor beta = Estrogen receptor beta (Homo sapiens, UniProt Q92731);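 also: recombinant ER-beta bound to coactivator SRC1 peptide in presence of estradiol agonist; inhibitors block coactivator peptide binding and lower the FRET signal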
[13] = molecular target: Glyceraldehyde-3-phosphate dehydrogenase (Homo sapiens, UniProt P04406)
Sequence of Glyceraldehyde-3-phosphate dehydrogenase (P04406 whole entry): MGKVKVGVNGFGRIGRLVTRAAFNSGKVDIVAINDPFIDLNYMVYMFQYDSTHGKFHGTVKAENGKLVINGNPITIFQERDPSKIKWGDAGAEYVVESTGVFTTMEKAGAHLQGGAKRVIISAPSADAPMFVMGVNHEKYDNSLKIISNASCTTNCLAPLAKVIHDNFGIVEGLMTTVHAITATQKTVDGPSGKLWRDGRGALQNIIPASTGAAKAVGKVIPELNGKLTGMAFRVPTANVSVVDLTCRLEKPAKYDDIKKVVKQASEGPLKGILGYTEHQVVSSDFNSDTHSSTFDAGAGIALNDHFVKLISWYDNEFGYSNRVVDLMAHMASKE

[14] = molecular target: T3, Kappa-type opioid receptor (Homo sapiens, UniProt P41145); assay type: functional
[15] = molecular target: T3, Kappa-type opioid receptor; assay type: functional; remark: listed apart in the source
Beta-galactosidase [16] = molecular target: T4, Beta-galactosidase (Escherichia coli, UniProt Q8VNN2); assay type: functional
Streptococcus = assay: GAS UMAA2166 growth inhibition – luminescence, BacTiterGlo, counter-screen for streptokinase expression inhibitor project, dose response (AID 1915); assay type: functional, organism-based;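 also: potency for reduction of bacterial viability or growth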
[17] = system: Streptococcus sp. 'group A'; assay: Streptococcus pyogenes SK(-)GAS viability under kanamycin – luminescence, BacTiterGlo, confirmation, counter-screen for streptokinase expression inhibitor project, dose response (AID 1900); assay type: functional, organism-based
[18] = molecular target: T5, Type-1 angiotensin II receptor (Homo sapiens, UniProt P30556); assay: antagonism of angiotensin II type 1 receptor – cell-based, uHTS hits, selectivity assay for APJ receptor antagonist project, dose response (AID 463214); assay type: functional;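 also: antagonist potency against angiotensin II stimulated AT1 response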
T5 sequence (P30556 whole entry): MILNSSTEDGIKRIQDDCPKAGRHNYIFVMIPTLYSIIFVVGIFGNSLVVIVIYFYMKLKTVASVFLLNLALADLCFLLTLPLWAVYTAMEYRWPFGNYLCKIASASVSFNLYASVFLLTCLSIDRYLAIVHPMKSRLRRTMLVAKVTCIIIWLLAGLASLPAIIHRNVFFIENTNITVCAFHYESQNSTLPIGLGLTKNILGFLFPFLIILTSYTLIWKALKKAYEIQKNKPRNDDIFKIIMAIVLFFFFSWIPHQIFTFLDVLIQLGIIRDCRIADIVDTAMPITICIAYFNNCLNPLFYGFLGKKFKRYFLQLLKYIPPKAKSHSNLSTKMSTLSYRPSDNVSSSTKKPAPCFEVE

Beta-galactosidase [19] = molecular target: T4, Beta-galactosidase; assay: PubChem AID 485352; assay type: functional
Aminopeptidase N = molecular target: T6, Aminopeptidase N (Plasmodium falciparum FcB1/Columbia, UniProt O96935); assay: malaria alanyl aminopeptidase activity blockers – biochemical, fluorogenic H-Leu-NHMec substrate, 1536-well (AID 1445); design: species or system Plasmodium falciparum 3D7, 3D7
T6 sequence (O96935 whole entry): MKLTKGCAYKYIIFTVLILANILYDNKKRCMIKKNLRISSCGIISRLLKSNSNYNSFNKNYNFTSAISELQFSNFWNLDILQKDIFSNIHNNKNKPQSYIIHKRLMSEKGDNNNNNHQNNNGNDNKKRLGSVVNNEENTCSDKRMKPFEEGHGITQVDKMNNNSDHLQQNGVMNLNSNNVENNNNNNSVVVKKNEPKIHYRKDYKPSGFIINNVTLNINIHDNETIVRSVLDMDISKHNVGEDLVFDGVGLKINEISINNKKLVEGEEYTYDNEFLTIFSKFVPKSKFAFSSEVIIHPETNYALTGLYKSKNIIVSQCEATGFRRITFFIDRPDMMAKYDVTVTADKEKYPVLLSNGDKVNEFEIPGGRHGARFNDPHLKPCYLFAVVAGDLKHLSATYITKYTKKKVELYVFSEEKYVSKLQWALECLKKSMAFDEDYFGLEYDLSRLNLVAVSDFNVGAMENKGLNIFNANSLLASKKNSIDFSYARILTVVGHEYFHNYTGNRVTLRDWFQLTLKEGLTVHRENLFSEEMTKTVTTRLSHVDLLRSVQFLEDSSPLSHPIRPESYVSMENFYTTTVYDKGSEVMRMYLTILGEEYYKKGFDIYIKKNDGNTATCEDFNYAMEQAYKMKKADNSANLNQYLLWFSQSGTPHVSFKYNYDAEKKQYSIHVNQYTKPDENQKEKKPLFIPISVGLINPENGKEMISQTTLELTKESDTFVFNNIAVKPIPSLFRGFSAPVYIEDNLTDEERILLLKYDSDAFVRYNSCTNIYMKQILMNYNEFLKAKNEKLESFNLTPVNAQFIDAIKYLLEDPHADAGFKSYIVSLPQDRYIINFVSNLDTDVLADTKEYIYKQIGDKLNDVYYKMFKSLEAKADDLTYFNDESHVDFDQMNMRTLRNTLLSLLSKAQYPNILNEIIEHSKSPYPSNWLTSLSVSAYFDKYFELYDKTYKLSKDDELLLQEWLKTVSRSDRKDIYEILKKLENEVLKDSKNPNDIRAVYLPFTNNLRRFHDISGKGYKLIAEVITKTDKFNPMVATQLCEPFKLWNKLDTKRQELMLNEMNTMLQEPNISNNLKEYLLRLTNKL

SMILES: c1ccc(CSc2ccc(-c3cccs3)nn2)nc1
- EC50 [1]: > 50 µM (active)

SMILES: CCOC(=O)c1ccc(COC(=O)c2cc3ccccc3oc2=O)o1
- IC50 (cells): > 50 µM (active)

SMILES: CCOc1nc(-c2ccccc2)ccc1-c1noc(-c2cccs2)n1
- EC50 [2]: 21.2 µM (not active)
- EC50 [3]: 29.6 µM (not active)
- EC50 [4]: 25.8 µM (not active)

SMILES: CCOC(=O)c1nn(-c2ccc(Cl)cc2)c2nc(-c3ccc(C)cc3)c(C#N)c(=O)n12
- EC50 [2]: > 79.4 µM (not active)
- EC50 [3]: > 79.4 µM (not active)
- EC50 [4]: > 79.4 µM (not active)

SMILES: O=C(CSc1ncnc2nc[nH]c12)Nc1ccccc1C(F)(F)F
- IC50 [5]: 93.7 µM (active)
- IC50 [6]: 50.8 µM (active)

SMILES: CS(=O)(=O)N(CCc1ccccc1)CC(=O)Nc1ccc2c(c1)OCO2
- EC50 [1]: > 50 µM (active)

SMILES: CCC(=O)Nc1cc(C(=O)O)ccc1S(=O)(=O)c1ccc(C)cc1
- IC50 [5]: 42.2 µM (active)
- IC50 [6]: 16.4 µM (active)

SMILES: N=C(NOS(=O)(=O)c1ccc(Cl)cc1)c1cccnc1
- EC50 [1]: > 50 µM (active)

SMILES: Cc1ccc2c(c1)c1ccc3c(c1n2C)C(=O)C=CC3=O
- IC50 [7]: 1.51 µM (active)
- IC50 [8]: > 66 µM (inactive)
- CC50 (Vero): 27.3 µM (active)
- CC50 [9]: 12.5 µM (active)
- IC50 [10]: 51.8 µM (active)
- IC50 [11]: > 66 µM (inactive)
- EC50 [12]: 958 µM (active)

SMILES: CSCCC(NC(=O)c1ccco1)C(=O)OCC(=O)Nc1sccc1C#N (stereo not drawn)
- IC50 (Estrogen receptor beta): 16.5 µM (active)

SMILES: COc1ccc(CCNC(=O)CN(C2CCCCC2)S(C)(=O)=O)cc1OC
- IC50 [5]: 5.58 µM (active)
- IC50 [6]: 4.1 µM (active)

SMILES: CCOc1ccc(-c2csc(NNC3=NCCCCC3)n2)cc1
- IC50 [8]: > 66 µM (inactive)
- EC50 [2]: > 79.4 µM (not active)
- EC50 [3]: > 79.4 µM (not active)
- IC50 [11]: > 66 µM (inactive)
- EC50 [4]: > 79.4 µM (not active)

SMILES: CC(C)=CCN1CCN(Cc2nc(-c3ccccc3)cs2)CC1CCO (stereo not drawn)
- EC50 [1]: > 50 µM (active)

SMILES: O=C1NN(c2cccc(Cl)c2)C(=O)/C1=C\c1ccc(-c2cccc(C(=O)O)c2)o1
- IC50 [13]: > 100 µM (not active)

SMILES: Cc1oc(C(=O)O)cc1COc1ccc2c(oc(=O)c3ccccc32)c1C
- IC50 [13]: > 100 µM (not active)

SMILES: COCCN(CC(=O)Nc1cccc(C)c1C)C(=O)CN1C(=O)NC2(CCCCC2)C1=O
- IC50 [5]: 12.2 µM (active)
- IC50 [6]: 11.1 µM (active)

SMILES: CSC(=S)N/N=C(\C)c1ccccc1
- IC50 [14]: > 32 µM
- IC50 [15]: 8.37 µM (active)
- EC50 (Beta-galactosidase [16]): > 31.5 µM (inactive)

SMILES: CCCOc1cccc(-c2cc(C(=O)N/N=C/c3ccccn3)c3ccccc3n2)c1
- IC50 [14]: > 32 µM
- EC50 (Streptococcus): 2.21 µM (active)
- EC50 [17]: 1.95 µM (active)
- IC50 [15]: 8.44 µM (active)
- IC50 [18]: 5.9 µM (active)
- EC50 (Beta-galactosidase [16]): > 31.5 µM (inactive)
- EC50 (Beta-galactosidase [19]): > 40 µM (inactive)

SMILES: Cc1nnc(O)nc1N/N=C/c1cccs1
- EC50 [2]: > 79.4 µM (not active)
- IC50 (Aminopeptidase N): 25.8 µM (active)
- EC50 [3]: > 79.4 µM (not active)
- EC50 [4]: > 79.4 µM (not active)
